Earlier results in PMC11372459 (Acta Pharmaceutica Sinica. B, 2024).

System: Gram-positive bacteria

## Nisin (ITSISLCTPGCKTGALMGCNMKTATCHCSIHVSK; not fully specified; Lantibiotic nisin-A; UniProt P13068 24-57, looked up)
  antibacterial spectrum: specific activity against Gram-positive bacteria
